According to patent publication US10779550B2, “Human milk oligosaccharides to ameliorate symptoms of stress” (ABBOTT LABORATORIES, priority 2012, dated 2020):
Marks after values point to notes of the source that are not given here.

How the values were obtained:
[1] = tested on: fecal samples taken from breast-fed infants (BF) (intestinal flora); assay: Anaerobic fermentation of HMOs with fecal inocula from breast-fed infants; GABA and agmatine in supernatant by GC/MS and LC/MS/MS; type: cell-based, human; conditions: for GABA, ratio HMO/blank / agmatine, ratio HMO/blank: breast fed infants, fermentation 37° C.; for GABA and agmatine relative to a blank (in words): breast-fed infants (BF) fecal fermentation cultures
Description: (§1) Fecal samples from eight human babies, one group of four breast-fed and the other group of four formula-fed, were used as inocula for anaerobic fermentation (37° C.) of lacto-N-neotetraose (LNnT) and 6′-sialyllactose. Supernatants from the fermentation cultures were sampled at 0 hr, 3 hr, and 6 hr. A culture without addition of HMOs served as a control. A sample of the fermentation medium (blank), which constituted approximately 90% of the starting culture volume, was also analyzed.
(§2) Samples were extracted and split into equal parts for analysis on GC/MS and LC/MS/MS platforms. GABA and agmatine ions were identified in chromatograms, and peak area was integrated for quantitative analysis.

[2] = tested on: fecal samples taken from formula-fed infants (FF) (intestinal flora); assay: Anaerobic fermentation of HMOs with fecal inocula from formula-fed infants; GABA and agmatine in supernatant by GC/MS and LC/MS/MS; type: cell-based, human; conditions: for GABA, ratio HMO/blank / agmatine, ratio HMO/blank: formula fed infants, fermentation 37° C.; for GABA and agmatine relative to a blank (in words): formula-fed infants (FF) fecal fermentation cultures
Description: as §1, §2

| SMILES | GABA, ratio HMO/blank ([1]; 0 h) | agmatine, ratio HMO/blank ([1]; 0 h) | GABA, ratio HMO/blank ([1]; 3 h) | agmatine, ratio HMO/blank ([1]; 3 h) | GABA, ratio HMO/blank ([1]; 6 h) | agmatine, ratio HMO/blank ([1]; 6 h) | GABA and agmatine relative to a blank (in words) [1] | GABA, ratio HMO/blank ([2]; 0 h) | agmatine, ratio HMO/blank ([2]; 0 h) | GABA, ratio HMO/blank ([2]; 3 h) | agmatine, ratio HMO/blank ([2]; 3 h) | GABA, ratio HMO/blank ([2]; 6 h) | agmatine, ratio HMO/blank ([2]; 6 h) | GABA and agmatine relative to a blank (in words) [2] |
| --- | --- | --- | --- | --- | --- | --- | --- | --- | --- | --- | --- | --- | --- | --- |
| CC(=O)N[C@H]1[C@H]([C@H](O)[C@H](O)CO)O[C@@](OC[C@H]2O[C@@H](O[C@H]3[C@H](O)[C@@H](O)[C@H](O)O[C@@H]3CO)[C@H](O)[C@@H](O)[C@H]2O)(C(=O)O)C[C@@H]1O [6′SL, 6′-sialyllactose] | 1.22 | 8.23^a | 3.53 | 10.51 | 5.32 | 3.43 | dramatic increases | 0.6 | 1.4 | 4.31 | 11.99 | 16.99^a | 3.76 | dramatic increases |
| CC(=O)N[C@H]1[C@H](O[C@H]2[C@@H](O)[C@@H](CO)O[C@@H](O[C@H]3[C@H](O)[C@@H](O)C(O)O[C@@H]3CO)[C@@H]2O)O[C@H](CO)[C@@H](O[C@@H]2O[C@H](CO)[C@H](O)[C@H](O)[C@H]2O)[C@@H]1O (mixture of isomers) [LNnT, lacto-N-neotetraose] | 3.66 | 9.52^a | 14.78 | 34.4 | 17.46^a | 1.59 | dramatic increases | 3.25 | 2.12 | 27.83^a | 61.77^a | 33.42^a | 75.02^a | dramatic increases |
